US20140336182A1, “Aurora Kinase Modulators and Method of Use” (Amgen Inc., priority 2013, published 2014)

These molecules were tested on HeLa cells (assay: HeLa cell 24 hr ploidy assay (DNA content)). Settings: Homo sapiens, HeLa, 4N ploidy, average, read-out: 24h_4NPloidy EC50_IP (uM Avg).
Format: cell-based
In short: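 DNA content measured by Hoechst 33342 nuclear staining (0.5 ug/ml, 45 min RT) and high-content imaging of fixed HeLa cells after 24 h compound exposure in 0.25% DMSO. Fractions of 4N and >4N cells fitted to dose curves giving EC50 IP, EC50 transit, Max and Min.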

EC50 | Compound
0.442 µM | COc1cnc2c(Oc3ccc(Nc4nnc(-c5cccc(C#N)c5)c5ccccc45)cc3)ccnc2c1 [Example 29, 3-(4-(4-(7-methoxy-1,5-naphthyridin-4-yloxy)phenylamino)phthalazin-1-yl)benzonitrile]
0.39 µM | COc1cnc2c(Oc3ccc(Nc4nnc(-c5cccc(CO)n5)c5ccccc45)cc3)ccnc2c1 [compound 114]
0.052 µM | COc1cnc2c(Oc3ccc(Nc4nnc(-c5ccccc5)c5ccccc45)cc3F)ccnc2c1 [compound 89, N-(3-fluoro-4-((7-(methyloxy)-1,5-naphthyridin-4-yl)oxy)phenyl)-4-phenyl-1-phthalazinamine]
0.03 µM | COc1cnc2c(Oc3ccc(Nc4nnc(-c5ccc(C)s5)c5ccccc45)cc3)ccnc2c1 [compound 138]
0.028 µM | COc1cnc2c(Oc3ccc(Nc4nnc(-c5ccc6c(c5)OCCN6C)c5ccccc45)cc3)ccnc2c1 [compound 157]

The remaining lines, values behind:

Compound | EC50
N#Cc1ccc2c(Oc3ccc(Nc4nnc(-c5ccc(C(F)(F)F)cc5)c5ccccc45)cc3)ccnc2c1 [compound 147, 4-((4-((4-(4-(trifluoromethyl)phenyl)-1-phthalazinyl)amino)phenyl)oxy)-7-quinolinecarbonitrile] | 0.02 µM
COc1cc2nccc(Oc3ccc(Nc4nnc(-c5cccc(CO)n5)c5ccccc45)cc3)c2cc1OC [compound 112] | 0.02 µM
Cc1ccc(-c2nnc(Nc3ccc(Oc4ccnc5cc(C#N)ccc45)cc3)c3ccccc23)s1 [compound 162] | 0.004 µM
Cc1ccc(-c2nnc(Nc3ccc(Oc4ccnc5ccccc45)c(F)c3)c3ccccc23)cc1 [compound 161] | 0.01 µM
N#Cc1ccc2c(Oc3ccc(Nc4nnc(-c5cccc(O)c5)c5ccccc45)cc3)ccnc2c1 [compound 93] | 0.025 µM
Cc1csc(-c2nnc(Nc3ccc(Oc4ccnc5cc(C#N)ccc45)cc3)c3ccccc23)n1 [compound 86, 4-((4-((4-(4-methyl-1,3-thiazol-2-yl)-1-phthalazinyl)amino)phenyl)oxy)-7-quinolinecarbonitrile] | 0.097 µM
COc1cc2nccc(Oc3ccc(Nc4nnc(-c5cccs5)c5ccccc45)cc3F)c2cc1OC [compound 76] | 0.06 µM
COc1ccccc1-c1nnc(Nc2ccc(Oc3ccnc4cc(C#N)ccc34)cc2)c2ccccc12 [compound 119] | > 1.2 µM
COc1cc2nccc(Sc3ccc(Nc4nnc(-c5ccccc5)c5ccccc45)cc3)c2cc1OC [compound 104] | 0.02 µM
COc1cc2ncnc(Oc3ccc(Nc4nnc(-c5cc(C)cs5)c5ccccc45)cc3)c2cc1OC [compound 153] | 0.001 µM
COc1cc2nccc(Oc3ccc(Nc4nnc(-c5cc(C)ccn5)c5ccccc45)cc3)c2cn1 [compound 121] | 0.132 µM
COc1cc2nccc(Oc3ccc(Nc4ncc(-c5ccccc5)c5ccccc45)cc3)c2cn1 [compound 145] | > 1.2 µM

Same assay, conditions: Homo sapiens, HeLa, HeLa cells, 4N ploidy, average, read-out: 24h_4NPloidy EC50_IP (uM Avg)

EC50 | Compound
> 1.2 µM | COc1cnc2c(Oc3ccc(Nc4nnc(-c5cccc(C(=O)N(C)C)c5)c5ccccc45)cc3)ccnc2c1 [compound 226]
0.195 µM | COc1cnc2c(Oc3ccc(Nc4nnc(-c5ccccc5)c5ccccc45)cn3)ccnc2c1 [Example 41, N-(6-(7-methoxy-1,5-naphthyridin-4-yloxy)pyridin-3-yl)-4-phenylphthalazin-1-amine]
0.026 µM | COc1cnc2c(Oc3ccc(Nc4nnc(-c5ccc(Cl)cc5)c5ccccc45)cn3)ccnc2c1 [compound 222, 4-(4-chlorophenyl)-N-(6-((7-(methyloxy)-1,5-naphthyridin-4-yl)oxy)-3-pyridinyl)-1-phthalazinamine]
0.033 µM | COc1cnc2c(Oc3ccc(Nc4nnc(-c5ccc(F)c(F)c5)c5ccccc45)cc3)ccnc2c1 [compound 214]
0.031 µM | Clc1ccc(-c2nnc(Nc3ccc(Oc4ccnc5ccncc45)cc3)c3ccccc23)cc1 [compound 423]
0.009 µM | COc1cnc2c(Sc3ccc(Nc4nnc(-c5ccccc5)c5ccccc45)cc3F)ccnc2c1 [compound 519]
> 1.2 µM | COc1cnc2c(Oc3ccc(Nc4nnc(-c5cncnc5)c5ccccc45)cc3)ccnc2c1 [compound 215, N-(4-((7-(methyloxy)-1,5-naphthyridin-4-yl)oxy)phenyl)-4-(5-pyrimidinyl)-1-phthalazinamine]
0.058 µM | COc1cnc2c(Oc3ccc(Nc4nnc(-c5ccc(Cl)nc5)c5ccccc45)cc3)ccnc2c1 [compound 235, 4-(6-chloro-3-pyridinyl)-N-(4-((7-(methyloxy)-1,5-naphthyridin-4-yl)oxy)phenyl)-1-phthalazinamine]
0.033 µM | COc1cnc2c(Oc3ccc(Nc4nnc(-c5cccc(C)c5)c5ccccc45)cc3)ccnc2c1 [compound 317]
0.025 µM | COc1cnc2c(Sc3ccc(Nc4nnc(-c5cccc(Cl)c5)c5ccccc45)cc3)ccnc2c1 [compound 516]
0.292 µM | COc1cc(OC)c2c(Oc3ccc(Nc4nnc(-c5ccccc5)c5ccccc45)cn3)ncnc2c1 [compound 606]
0.102 µM | Clc1ccc(-c2nnc(Nc3ccc(Oc4ccnc5ccoc45)cc3)c3ccccc23)cc1 [compound 483]
0.036 µM | COc1cnc2c(Oc3ccc(Nc4nnc(-c5ccc(F)cc5)c5ccccc45)cc3)ccnc2c1 [compound 220, 4-(4-fluorophenyl)-N-(4-((7-(methyloxy)-1,5-naphthyridin-4-yl)oxy)phenyl)-1-phthalazinamine]
0.012 µM | COc1ccc2nccc(Sc3ccc(Nc4nnc(-c5ccc(Cl)cc5)c5ccccc45)cc3)c2n1 [compound 348]
0.014 µM | COc1ccc2nccc(Sc3ccc(Nc4nnc(-c5ccc(Cl)cc5)c5ccccc45)cc3)c2c1 [compound 315, 4-(4-chlorophenyl)-N-(4-(6-methoxyquinolin-4-ylthio)phenyl)phthalazin-1-amine]
0.016 µM | Clc1ccc(-c2nnc(Nc3ccc(Oc4ccnc5cccnc45)cc3)c3ccccc23)cc1 [compound 448]

The next lines start with the molecule.

Compound | EC50
FC(F)Oc1cnc2c(Sc3ccc(Nc4nnc(-c5ccccc5)c5ccccc45)cc3)ccnc2c1 [Example 387, N-(4-(7-(difluoromethoxy)-1,5-naphthyridin-4-ylthio)phenyl)-4-phenylphthalazin-1-amine] | 0.12 µM
COc1ccc2nccc(Oc3ccc(Nc4nnc(-c5cc(C)cs5)c5ccccc45)cc3)c2n1 [compound 552] | 0.01 µM
Clc1ccc(-c2nnc(Nc3ccc(Sc4ccnc5ccccc45)cc3)c3ccccc23)nc1 [compound 365] | 0.003 µM
COc1cnc2c(Oc3ccc(Nc4nnc(-c5ccc(C)c(N)c5)c5cc(F)c(F)cc45)cc3)ccnc2c1 [compound 545] | 0.012 µM
Clc1ccc(-c2nnc(Nc3ccc(Oc4cnnc5ccc(Br)cc45)cc3)c3ccccc23)cc1 [compound 369] | > 1.2 µM
Cc1cc2nccc(Sc3ccc(Nc4nnc(-c5ccc(Cl)cc5)c5ccccc45)cc3)c2s1 [compound 559] | 0.018 µM
COc1ccc2nccc(Oc3ccc(Nc4nnc(-c5ccccc5)c5ccccc45)cc3)c2n1 [compound 347] | 0.039 µM
CS(=O)(=O)CCOc1ccc2nccc(Sc3ccc(Nc4nnc(-c5ccc(Cl)cc5)c5ccccc45)cc3)c2c1 [Example 390, 4-(4-Chlorophenyl)-N-(4-(6-(2-(methylsulfonyl)ethoxy)quinolin-4-ylthio)phenyl) phthalazin-1-amine] | > 1.2 µM
COc1cccc(-c2nnc(Nc3ccc(Oc4ccnc5cc(-c6cncn6C)sc45)cc3)c3ccccc23)n1 [compound 240] | 0.01 µM
COc1cnc2c(Sc3ccc(Nc4nnc(N5CCN6CCCC[C@H]6C5)c5ccccc45)cc3)ccnc2c1 [compound 585] | 0.018 µM
CCOc1nnc(Nc2ccc(Sc3ccnc4cc(OC)cnc34)cc2)c2ccccc12 [compound 512] | 0.033 µM
CCc1cc(-c2ccc(C)s2)nnc1Nc1ccc(Oc2ccnc3cc(OC)cnc23)cc1 [compound 205, 4-ethyl-N-(4-((7-(methyloxy)-1,5-naphthyridin-4-yl)oxy)phenyl)-6-(5-methyl-2-thienyl)-3-pyridazinamine] | 0.074 µM
Clc1ccc(-c2nnc(Nc3ccc(Sc4ccnc5[nH]ncc45)cc3)c3ccccc23)cc1 [compound 359] | 0.013 µM
Cc1csc(-c2nnc(Nc3ccc(Sc4ccnc5ccoc45)cc3)c3ccccc23)c1 [compound 468] | 0.014 µM
COc1cnc2c(Oc3ccc(Nc4nnc(N5CC[C@H]6CCCC[C@H]6C5)c5ccccc45)cc3)ccnc2c1 [compound 173] | 0.006 µM
FC1(F)Oc2ccc(-c3nnc(Nc4ccc(Sc5ccnc6cccnc56)cc4)c4ccccc34)cc2O1 [compound 444] | 0.024 µM
CC(C)n1ccc2nccc(Sc3ccc(Nc4nnc(-c5ccc(Cl)cc5)c5ccccc45)cc3)c21 [compound 471] | 0.006 µM
Cn1cncc1-c1cc2nccc(Oc3ccc(Nc4nnc(-c5ccc(Cl)cc5)c5ccccc45)cc3)c2s1 [compound 249] | 0.008 µM
Fc1cc(F)c2c(Sc3ccc(Nc4nnc(-c5ccccc5)c5ccccc45)cc3)ccnc2c1 [compound 311] | 0.055 µM
c1cnc2c(Sc3ccc(Nc4nnc(-c5ccc6c(c5)CCO6)c5ccccc45)cc3)ccnc2c1 [compound 445] | 0.001 µM
COc1cnc2c(Sc3ccc(Nc4nnc(N5CCC(N6CCCC6)CC5)c5ccccc45)cc3)ccnc2c1 [compound 538] | 0.178 µM
Cc1csc(-c2nnc(Nc3ccc(Oc4ncnc5ccccc45)cc3)c3ccccc23)c1 [compound 568] | 0.034 µM
CCN(CC)C(=O)c1cc2nccc(Oc3ccc(Nc4nnc(-c5ccc(Cl)cc5)c5ccccc45)cc3)c2s1 [compound 270] | 0.082 µM
c1ccc(-c2nnc(Nc3ccc(Sc4ccnc5ccoc45)cc3)c3ccccc23)cc1 [compound 466] | 0.086 µM
c1ccc(-c2nnc(Nc3ccc(Oc4ccnc5ccsc45)cc3)c3ccccc23)cc1 [compound 251] | 0.227 µM
Cc1ccc(-c2nnc(Nc3ccc(Oc4ccnc5cc(-c6cncn6C)sc45)cc3)c3ccccc23)nc1 [compound 255] | 0.014 µM
COc1ccc2c(Cc3ccc(Nc4nnc(-c5ccccc5)c5ccccc45)cc3)ccnc2c1 [compound 319] | 0.028 µM
